Source: PubChem BioAssay (NCI)
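Method: 48-hour compound exposure of cells in 96-well plates, five concentrations, linear interpolation of endpoints. TGI is the concentration that stops growth completely.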

Tests used:
Assay in all cases: growth of human tumour cells (NCI), 48 h
TK-10 renal = tested on: TK-10 renal
SK-MEL-5 melanoma = tested on: SK-MEL-5 melanoma
U251 CNS = tested on: U251 CNS
SK-MEL-2 melanoma = tested on: SK-MEL-2 melanoma
786-0 renal = tested on: 786-0 renal
OVCAR-4 ovarian = tested on: OVCAR-4 ovarian
SF-268 CNS = tested on: SF-268 CNS
CCRF-CEM leukemia = tested on: CCRF-CEM leukemia
MOLT-4 leukemia = tested on: MOLT-4 leukemia
OVCAR-5 ovarian = tested on: OVCAR-5 ovarian
SNB-78 CNS = tested on: SNB-78 CNS
NCI-H460 lung = tested on: NCI-H460 lung
K-562 leukemia = tested on: K-562 leukemia
SNB-19 CNS = tested on: SNB-19 CNS
SW-620 colon = tested on: SW-620 colon
SF-295 CNS = tested on: SF-295 CNS
NCI-H23 lung = tested on: NCI-H23 lung
DLD-1 colon = tested on: DLD-1 colon
ACHN renal = tested on: ACHN renal
SK-MEL-28 melanoma = tested on: SK-MEL-28 melanoma
RPMI-8226 leukemia = tested on: RPMI-8226 leukemia
OVCAR-3 ovarian = tested on: OVCAR-3 ovarian
SN12C renal = tested on: SN12C renal
LXFL 529 NSCLC = tested on: LXFL 529 NSCLC
SNB-75 CNS = tested on: SNB-75 CNS
A549 NSCLC = tested on: A549 NSCLC
KM20L2 colon = tested on: KM20L2 colon
UO-31 renal = tested on: UO-31 renal
UACC-257 melanoma = tested on: UACC-257 melanoma
A498 renal = tested on: A498 renal
EKVX NSCLC = tested on: EKVX NSCLC
MALME-3M melanoma = tested on: MALME-3M melanoma
HOP-62 NSCLC = tested on: HOP-62 NSCLC
KM12 colon = tested on: KM12 colon
NCI-H522 lung = tested on: NCI-H522 lung
HT29 colon = tested on: HT29 colon
XF 498 CNS = tested on: XF 498 CNS
CAKI-1 renal = tested on: CAKI-1 renal
HCC-2998 colon = tested on: HCC-2998 colon
OVCAR-8 ovarian = tested on: OVCAR-8 ovarian
M14 melanoma = tested on: M14 melanoma
HCT-15 colon = tested on: HCT-15 colon
HCT-116 colon = tested on: HCT-116 colon
SR leukemia = tested on: SR leukemia
DMS 114 small cell lung = tested on: DMS 114 small cell lung
M19-MEL melanoma = tested on: M19-MEL melanoma
NCI-H226 lung = tested on: NCI-H226 lung
DMS 273 small cell lung = tested on: DMS 273 small cell lung
SK-OV-3 ovarian = tested on: SK-OV-3 ovarian
LOX IMVI melanoma = tested on: LOX IMVI melanoma
IGROV1 ovarian = tested on: IGROV1 ovarian
COLO 205 colon = tested on: COLO 205 colon
HOP-92 NSCLC = tested on: HOP-92 NSCLC
HL-60(TB) leukemia = tested on: HL-60(TB) leukemia
HOP-18 NSCLC = tested on: HOP-18 NSCLC
UACC-62 melanoma = tested on: UACC-62 melanoma
SF-539 CNS = tested on: SF-539 CNS

`COc1ccc(C[C@@H]2Cc3cc(OC)c(OC)cc3CN2C)cc1` was tested, and the TGI (TK-10 renal) was greater than 100 µM, the TGI (SK-MEL-5 melanoma) was greater than 100 µM and the TGI (U251 CNS) was greater than 100 µM. For the same compound, the TGI (SK-MEL-2 melanoma) was greater than 100 µM, the TGI (786-0 renal) was greater than 100 µM and the TGI (OVCAR-4 ovarian) was greater than 100 µM. For the same compound, the TGI (SF-268 CNS) was greater than 100 µM, the TGI (CCRF-CEM leukemia) was greater than 100 µM and the TGI (MOLT-4 leukemia) was greater than 100 µM. The TGI (OVCAR-5 ovarian) was greater than 100 µM, the TGI (SNB-78 CNS) was greater than 100 µM and the TGI (NCI-H460 lung) was greater than 100 µM. It also gave a TGI (K-562 leukemia) greater than 100 µM, a TGI (SNB-19 CNS) greater than 100 µM and a TGI (SW-620 colon) greater than 100 µM. For the same compound, the TGI (SF-295 CNS) was greater than 100 µM, the TGI (NCI-H23 lung) was greater than 100 µM and the TGI (DLD-1 colon) was greater than 100 µM. For the same compound, the TGI (ACHN renal) was greater than 100 µM, the TGI (SK-MEL-28 melanoma) was greater than 100 µM and the TGI (RPMI-8226 leukemia) was greater than 100 µM. The TGI (OVCAR-3 ovarian) was greater than 100 µM, the TGI (SN12C renal) was greater than 100 µM and the TGI (LXFL 529 NSCLC) was greater than 100 µM. It also gave a TGI (SNB-75 CNS) greater than 100 µM, a TGI (A549 NSCLC) greater than 100 µM and a TGI (KM20L2 colon) greater than 100 µM. For the same compound, the TGI (UO-31 renal) was greater than 100 µM, the TGI (UACC-257 melanoma) was greater than 100 µM and the TGI (A498 renal) was greater than 100 µM. It also gave a TGI (EKVX NSCLC) greater than 100 µM, a TGI (MALME-3M melanoma) greater than 100 µM and a TGI (HOP-62 NSCLC) greater than 100 µM. It also gave a TGI (KM12 colon) greater than 100 µM, a TGI (NCI-H522 lung) greater than 100 µM and a TGI (HT29 colon) greater than 100 µM. It also gave a TGI (XF 498 CNS) greater than 100 µM, a TGI (CAKI-1 renal) greater than 100 µM and a TGI (HCC-2998 colon) greater than 100 µM. The TGI (OVCAR-8 ovarian) was greater than 100 µM, the TGI (M14 melanoma) was greater than 100 µM and the TGI (HCT-15 colon) was greater than 100 µM.

`O=C1CCCCC1CN1CCCC1` (stereo unspecified) gave a TGI (TK-10 renal) greater than 100 µM, a TGI (SK-MEL-5 melanoma) greater than 100 µM and a TGI (U251 CNS) greater than 100 µM. It also gave a TGI (SK-MEL-2 melanoma) greater than 100 µM, a TGI (786-0 renal) greater than 100 µM and a TGI (OVCAR-4 ovarian) greater than 100 µM. The TGI (SF-268 CNS) was greater than 100 µM, the TGI (HCT-116 colon) was greater than 100 µM and the TGI (SR leukemia) was greater than 100 µM. The TGI (DMS 114 small cell lung) was greater than 100 µM, the TGI (CCRF-CEM leukemia) was greater than 100 µM and the TGI (MOLT-4 leukemia) was greater than 100 µM. It also gave a TGI (OVCAR-5 ovarian) greater than 100 µM, a TGI (SNB-78 CNS) greater than 100 µM and a TGI (M19-MEL melanoma) greater than 100 µM. For the same compound, the TGI (NCI-H460 lung) was greater than 100 µM, the TGI (NCI-H226 lung) was greater than 100 µM and the TGI (K-562 leukemia) was greater than 100 µM. For the same compound, the TGI (SW-620 colon) was greater than 100 µM, the TGI (SF-295 CNS) was greater than 100 µM and the TGI (NCI-H23 lung) was greater than 100 µM. For the same compound, the TGI (DLD-1 colon) was greater than 100 µM, the TGI (ACHN renal) was greater than 100 µM and the TGI (SK-MEL-28 melanoma) was greater than 100 µM. It also gave a TGI (DMS 273 small cell lung) greater than 100 µM, a TGI (SK-OV-3 ovarian) greater than 100 µM and a TGI (RPMI-8226 leukemia) greater than 100 µM. It also gave a TGI (OVCAR-3 ovarian) greater than 100 µM, a TGI (SN12C renal) greater than 100 µM and a TGI (LXFL 529 NSCLC) greater than 100 µM. The TGI (SNB-75 CNS) was greater than 100 µM, the TGI (A549 NSCLC) was greater than 100 µM and the TGI (KM20L2 colon) was greater than 100 µM. It also gave a TGI (UACC-257 melanoma) greater than 100 µM, a TGI (A498 renal) greater than 100 µM and a TGI (LOX IMVI melanoma) greater than 100 µM. The TGI (EKVX NSCLC) was greater than 100 µM, the TGI (HOP-62 NSCLC) was greater than 100 µM and the TGI (KM12 colon) was greater than 100 µM. The TGI (IGROV1 ovarian) was greater than 100 µM, the TGI (NCI-H522 lung) was 0.521 µM and the TGI (HT29 colon) was greater than 100 µM. For the same compound, the TGI (XF 498 CNS) was greater than 100 µM, the TGI (HCC-2998 colon) was greater than 100 µM and the TGI (OVCAR-8 ovarian) was greater than 100 µM. The TGI (M14 melanoma) was greater than 100 µM, the TGI (COLO 205 colon) was greater than 100 µM and the TGI (HCT-15 colon) was greater than 100 µM.

For `COc1ccc(N2C(=O)C3c4[nH]c5ccccc5c4C4CCCCCCCCCCC4C3C2=O)cc1` (stereo unspecified), the TGI (TK-10 renal) was greater than 73.2 µM, the TGI (SK-MEL-5 melanoma) was greater than 59.6 µM and the TGI (U251 CNS) was 22.4 µM. For the same compound, the TGI (SK-MEL-2 melanoma) was greater than 100 µM, the TGI (786-0 renal) was 8.17 µM and the TGI (HOP-92 NSCLC) was 45.2 µM. The TGI (OVCAR-4 ovarian) was 65.8 µM, the TGI (SF-268 CNS) was greater than 30.5 µM and the TGI (HL-60(TB) leukemia) was 68.2 µM. The TGI (HCT-116 colon) was 15.6 µM, the TGI (SR leukemia) was greater than 20.3 µM and the TGI (DMS 114 small cell lung) was greater than 47.5 µM. It also gave a TGI (CCRF-CEM leukemia) greater than 43.7 µM, a TGI (MOLT-4 leukemia) of 37.4 µM and a TGI (HOP-18 NSCLC) of 6.53 µM. It also gave a TGI (UACC-62 melanoma) greater than 52.6 µM, a TGI (OVCAR-5 ovarian) greater than 64.6 µM and a TGI (M19-MEL melanoma) greater than 52.2 µM. It also gave a TGI (NCI-H460 lung) of 19.5 µM, a TGI (SF-539 CNS) greater than 33.2 µM and a TGI (NCI-H226 lung) of 17.7 µM. The TGI (K-562 leukemia) was greater than 78.3 µM, the TGI (SNB-19 CNS) was 40.8 µM and the TGI (SW-620 colon) was 18.7 µM. For the same compound, the TGI (SF-295 CNS) was 39.4 µM, the TGI (NCI-H23 lung) was greater than 33.1 µM and the TGI (DLD-1 colon) was greater than 39.9 µM. For the same compound, the TGI (ACHN renal) was greater than 60.3 µM, the TGI (SK-MEL-28 melanoma) was 29.7 µM and the TGI (DMS 273 small cell lung) was 18.6 µM. It also gave a TGI (SK-OV-3 ovarian) greater than 57.5 µM, a TGI (RPMI-8226 leukemia) of 43.2 µM and a TGI (OVCAR-3 ovarian) of 26.4 µM. It also gave a TGI (SN12C renal) of 19.9 µM, a TGI (LXFL 529 NSCLC) of 23.7 µM and a TGI (SNB-75 CNS) of 55 µM. The TGI (A549 NSCLC) was 23.2 µM, the TGI (KM20L2 colon) was 11.5 µM and the TGI (UO-31 renal) was greater than 59.8 µM. For the same compound, the TGI (UACC-257 melanoma) was greater than 100 µM, the TGI (A498 renal) was 25.5 µM and the TGI (LOX IMVI melanoma) was greater than 46.6 µM. The TGI (EKVX NSCLC) was greater than 52.8 µM, the TGI (MALME-3M melanoma) was greater than 47.2 µM and the TGI (HOP-62 NSCLC) was greater than 55 µM. For the same compound, the TGI (KM12 colon) was greater than 57.3 µM, the TGI (IGROV1 ovarian) was greater than 48.7 µM and the TGI (NCI-H522 lung) was greater than 49.1 µM. For the same compound, the TGI (HT29 colon) was 18.9 µM, the TGI (XF 498 CNS) was 28 µM and the TGI (CAKI-1 renal) was greater than 100 µM. For the same compound, the TGI (HCC-2998 colon) was greater than 100 µM, the TGI (OVCAR-8 ovarian) was 9.61 µM and the TGI (M14 melanoma) was 27.1 µM. The TGI (COLO 205 colon) was greater than 40.5 µM and the TGI (HCT-15 colon) was 19.9 µM.
